Reference: PubChem BioAssay (NCI)
Values joined by “and” are separate entries in the source; they are usually repeats but may differ in a detail not shown here. Equal entries are not always repeated.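 A five-concentration, 48-hour dose response in 96-well plates underlies each endpoint, interpolated linearly between surrounding concentrations. Abbreviation: GI50, concentration required for 50% inhibition of growth. At the TGI there is no net growth.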

Key:
Experiment in all cases: DTP human tumour cell line panel, 48 h
[1] = test system: DLD-1 colon
[2] = test system: HOP-18 NSCLC
[3] = test system: KM20L2 colon
[4] = test system: XF 498 CNS
[5] = test system: BT-549 breast
[6] = test system: DU-145 prostate
[7] = test system: HS 578T breast
[8] = test system: MCF7 breast
[9] = test system: PC-3 prostate
[10] = test system: T-47D breast

| SMILES | TGI [1] [µM] | TGI [2] [µM] | TGI [3] [µM] | TGI [4] [µM] | also measured |
| --- | --- | --- | --- | --- | --- |
| C[N+](C)(C)CC1CCCCC1O (stereo not given) | > 100 | > 100 | > 100 |  |  |
| COc1ccc(CN2CCC/C=C/CC(Cl)(Cl)C2=O)cc1 | > 100 | > 100 | > 100 |  |  |
| CSc1nnc(COc2ccc(Cl)cc2)o1 | > 100 |  | > 100 | > 100 |  |
| CC(C)(C)C(=O)[CH-]C(=O)C(C)(C)C.CC(C)(C)C(=O)[CH-]C(=O)C(C)(C)C.CN(C)c1ccc([O-])cc1.CN(C)c1ccc([O-])cc1.[Ti+4] | > 100 | > 100 | > 100 |  | GI50 [1]: > 100 µM; GI50 [2]: > 100 µM; GI50 [3]: > 100 µM |
| Cn1c2c(c3ccccc31)CCN(CCN1CCN(c3cccc(Cl)c3)CC1)C2=O | > 100 | > 100 | > 100 | 34.5 |  |
| COC(=O)C1(C(=O)OC)CC(=O)c2cc3c(cc2-c2c(cc(OC)c(OC)c2OC)C1)OCO3 | > 211 | > 211 | > 211 |  |  |
| Cc1c2ccccc2cc2ccc3oc([N+](=O)[O-])cc3c12 | > 100 | 62.8 | > 100 | > 100 |  |
| O=c1oc2ccccc2[n+]([O-])c1-c1ccccc1 | > 100 | > 100 | > 100 | > 100 |  |
| CC(C)(Oc1ccc(/C=C/C(=O)c2ccc(Cl)cc2)cc1)C(=O)Nc1c(Cl)cccc1Cl | 29.2 | > 100 | 46.1 | 37.7 |  |
| O=C(N/N=C/c1cccc(F)c1)c1ccncc1 | > 100 | > 100 | > 100 | > 100 |  |
| O=C(/C=C/c1ccccc1)CC(=O)CCC(=O)Nc1ccc(Cl)cc1 | > 100 | > 100 | > 100 |  |  |
| CN(C)C(=S)/N=c1\ssc(=S)n1Cc1ccncc1 | 47.4 | 57.6 | > 100 | 24.9 |  |
| CCCCN(CC)CC(C(C)=O)c1c(O)c2ccccc2oc1=O (stereo not given) | > 100 | > 100 | > 100 | > 100 |  |
| Cc1cc(N(CCC#N)CCC#N)ccc1/C=C(\NC(=O)/C=C/c1ccccc1)C(=O)NN | > 100 |  | > 100 | > 100 | TGI [5]: 80.4 µM; TGI [6]: > 100 µM; TGI [7]: 77.5 µM; TGI [8]: > 100 µM; TGI [9]: > 100 µM; TGI [10]: > 100 µM |
| C=CC(OCC)(OCC)OCC | > 100 | > 100 | > 100 | > 100 |  |
| CCC(=O)Nc1nc2c(ncn2C2OC(COC(=O)CC)C(OC(=O)CC)C2OC(=O)CC)c(=O)[nH]1 (stereo not given) |  |  | > 100 |  |  |
| O=[N+]([O-])c1ccc(-c2ccc(-c3csc(Nc4ccccc4)n3)o2)cc1 | 65.9 | 29.4 | 44.9 | 32.4 |  |
| Cc1ccccc1NC(=O)C1C(=O)N(c2ccccc2C)C(=O)/C1=N\NC(N)=S (stereo not given) | > 100 |  | > 100 | > 100 |  |
| COc1ccc(/C(=N\NC(=S)NN)C(c2ccc(OC)cc2)C2C(=O)Oc3ccccc32)cc1 (stereo not given) | > 100 | > 100 | > 100 | > 100 | GI50 [1]: > 100 µM; GI50 [2]: > 100 µM; GI50 [3]: > 100 µM; GI50 [4]: > 100 µM |
| CC(=O)N1CCC2(c3ccccc3N(C(C)=O)C2c2ccc(O)cc2)C1C(=O)O (stereo not given) | > 100 | > 100 | > 100 | > 100 |  |
| COc1ccc(C(=O)NCCN(C)C)c2nc3ccccc3nc12 | > 65.4 | > 82.6 | 26.5 |  |  |
| CCOC(=O)C1SC(=Nc2ccc(Cl)cc2)N=C1C (stereo not given) | 28.7 | 42.5 | 33.4 | 34.2 |  |
| O=[N+]([O-])c1ccc(Sc2c3ccccc3nc3cc(Cl)ccc23)cc1 | > 100 | > 100 | > 100 | 99.6 | GI50 [1]: > 100 µM; GI50 [2]: > 100 µM; GI50 [3]: > 100 µM |
| NC(=S)NN/C=C(\C=Nc1ccccc1)[N+](=O)[O-] | > 100 |  | > 100 | > 100 |  |
| O=C(O)c1ccc(C2C(=O)N[C@@H]3CCC[C@H]23)cc1 (stereo not given in full) | > 100 | > 100 | > 100 |  |  |

| SMILES | TGI [1] [µM] | TGI [2] [µM] | TGI [3] [µM] | TGI [4] [µM] | also measured |
| --- | --- | --- | --- | --- | --- |
| CCOC(=O)NC(=O)c1cn(CCN2CCN(C(=O)CCCCCCCCCCC(=O)N3CCN(CCn4cc(C(=O)NC(=O)OCC)c(=O)[nH]c4=O)CC3)CC2)c(=O)[nH]c1=O | > 100 | > 100 |  | > 100 |  |
| CSC(=S)N/N=C/c1nccc2ccccc12 | 22.4 | 9.78 | > 27.6 | 16.4 |  |
| COC(=O)C1(O)CC(=O)CCC1c1ccc(OC)cc1 (stereo not given) | > 100 | > 100 | > 100 |  |  |
| Cc1ccccc1C(=O)N1CCN(C(=O)c2ccccc2C)CC1 | > 100 | > 100 | > 100 | > 100 |  |
| CN1/C(=C\C=C\C2=[N+](C)c3ccccc3C2(C)C)C(C)(C)c2ccccc21 |  |  |  |  | GI50 [5]: 0.0903 µM; TGI [5]: 1.64 µM; GI50 [6]: 0.105 µM; TGI [6]: 12.1 µM; GI50 [7]: 0.216 µM; TGI [7]: 4.45 µM; GI50 [8]: 0.127 µM; TGI [8]: 1.18 µM; GI50 [9]: 0.0455 µM; TGI [9]: 5.97 µM; GI50 [10]: 0.0179 µM; TGI [10]: 1.27 µM |
| COc1cc2c(cc1OC)C(C(=O)c1cccc(OC)c1OC)C(=O)N(C)CC2 (stereo not given) | > 100 | > 100 | > 100 | > 100 |  |
| c1ccc(N2N=C(c3ccco3)CC2c2ccco2)cc1 (stereo not given) |  |  | > 100 | > 100 |  |
| Nc1ncnc2c1ncn2CC(O)CO (stereo not given) | > 100 | > 100 |  |  |  |
| CCN(C(=O)/C=C/c1ccco1)c1ccccc1 |  |  |  |  | TGI [5]: > 100 µM; TGI [6]: > 100 µM; TGI [7]: > 100 µM; TGI [8]: > 100 µM; TGI [9]: > 100 µM; TGI [10]: > 100 µM |
| O=S(=O)(CCCl)c1ccc(Cl)cc1 |  |  |  |  | GI50 [5]: 3.36 µM; TGI [5]: 12.6 µM; GI50 [6]: 3.33 µM; TGI [6]: 12.3 µM; GI50 [7]: 3 µM; TGI [7]: 19.2 µM; GI50 [8]: 2.19 µM; TGI [8]: 10.3 µM; GI50 [9]: 5.82 µM; TGI [9]: 22.9 µM; GI50 [10]: 3.69 µM; TGI [10]: 19.9 µM |
| Cn1c2ccccc2c(=O)c2c(O)cc3c(c21)C=CC1(CCCCC1)O3 |  |  |  |  | TGI [5]: > 10 µM; TGI [6]: > 10 µM; TGI [7]: > 10 µM; TGI [8]: > 10 µM; TGI [9]: > 10 µM; TGI [10]: > 10 µM |
| CSC(=NCCc1c[nH]c2ccccc12)NC#N | > 100 |  | > 100 | > 100 |  |
| CC(=O)OCC1OC(N2C(=O)C(=O)c3ccccc32)C(OC(C)=O)C(OC(C)=O)C1OC(C)=O (stereo not given) | > 100 |  | > 100 |  |  |
| Cc1cc(I)cc(CN(C)CCCN2CCCC2)c1O |  |  |  |  | GI50 [5]: 13.9 µM; TGI [5]: 31.7 µM; GI50 [6]: 31.4 µM; TGI [6]: > 100 µM; GI50 [7]: 13.6 µM; TGI [7]: 33.8 µM; GI50 [8]: 12.8 µM; TGI [8]: 29.5 µM; GI50 [9]: 25 µM; TGI [9]: 73.7 µM; GI50 [10]: 19 µM; TGI [10]: 57.2 µM |
| CCOC(=O)c1cc2c3c(c(O)c(OC)c2s1)N(C(=O)c1cc2c4c(c(O)c(OC)c2s1)N(C(C)=O)CC4)CC3 | > 100 | > 100 | > 100 | 67.8 |  |
| COc1ccc(C(=O)c2ccc([As]=O)cc2)cc1 (stereo not given) |  |  |  |  | GI50 [5]: 0.166 µM; TGI [5]: 0.315 µM; GI50 [6]: 0.0735 µM; TGI [6]: 0.198 µM; GI50 [7]: 0.149 µM; TGI [7]: 0.586 µM; GI50 [8]: 0.0212 µM; TGI [8]: 0.136 µM; GI50 [9]: 0.056 µM; TGI [9]: 0.185 µM; GI50 [10]: 0.0288 µM; TGI [10]: 0.204 µM |
| CCCCN(CCCC)C(=O)/C(CC(=O)c1cccc2ccccc12)=N\NC(=O)c1cc2ccccc2cc1O | > 100 |  | 51.3 | 88.1 |  |
| CC(=O)/C(=C/c1ccccc1F)C(=O)c1ccccc1 |  |  |  |  | TGI [5]: > 100 µM; TGI [6]: > 100 µM; TGI [7]: > 100 µM; TGI [8]: > 100 µM; TGI [9]: > 100 µM; TGI [10]: > 100 µM |
| CC(C)(C)c1cc(C=C(C#N)C#N)cc(C(C)(C)C)c1O | 42.7 |  | 73.2 | 3.13 | GI50 [5]: 0.141 µM; TGI [5]: 0.875 µM and 6.78 µM; GI50 [6]: 0.0894 µM; TGI [6]: 18.5 µM and 56.8 µM; GI50 [7]: 0.133 µM; TGI [7]: 22.7 µM and 4.49 µM; TGI [8]: 41 µM; GI50 [9]: 0.0354 µM; TGI [9]: 3.36 µM and 4.17 µM; GI50 [10]: 0.0679 µM; TGI [10]: 0.645 µM and 5.07 µM |
| CCOC(=O)/C(C#N)=C\C=C(/Cl)c1ccc(Cl)cc1 |  |  |  |  | GI50 [5]: 25.8 µM; TGI [5]: 68 µM; GI50 [6]: 12.9 µM; TGI [6]: 25.5 µM; GI50 [7]: 22.7 µM; TGI [7]: 60.7 µM; GI50 [8]: 25.6 µM; TGI [8]: > 78.7 µM; GI50 [9]: 15 µM; TGI [9]: 33.5 µM; GI50 [10]: 2.83 µM; TGI [10]: 10.7 µM |
| C/C(=N/NC(=O)C[N+](C)(C)C)C(CN(C)C)C(=O)Nc1ccccc1 (stereo not given) | > 100 | > 100 | > 100 | > 100 |  |
| Cc1nc(C(N)=S)sc1C(=O)/C=C/c1c(O)ccc2ccccc12 | > 100 | > 100 | > 100 | > 100 |  |
| CCNC(=O)COc1ccc(Cl)cc1Cl | > 100 | > 100 | > 100 |  |  |
| CC1(C)CC2C(=O)c3ccccc3NC2c2ccccc21 (stereo not given) |  |  |  |  | TGI [5]: > 100 µM; TGI [6]: > 100 µM; TGI [7]: 6.99 µM; TGI [8]: > 100 µM; TGI [9]: > 100 µM; TGI [10]: > 100 µM |
